Reference: PubChem BioAssay AID2060505 (Molecular Pharmacology Branch, DTP, NCI, 2025)

Test system: 633275-114-R-J1-PDC complex spheroids, viability
Experiment: Anticancer human tumor 633275-114-R-J1-PDC patient-derived endometrial adenocarcinoma cell line growth inhibition [GQUAD]
Settings: for IC50: curve of first compound; for viability, T/C: stronger effect = lower value
In short: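 Multi-cell-type spheroids of tumor cells with HUVEC and mesenchymal stem cells, treated with drug combinations. Concentrations descend in half-log steps from near clinical Cmax, or from 10 microM where Cmax is unknown; viability read-out.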

[1] = second compound 0.0316 µM, first compound 0.0316 µM
[2] = second compound 0.0316 µM, first compound 0.1 µM
[3] = second compound 0.0316 µM, first compound 0.316 µM
[4] = second compound 0.0316 µM, first compound 1 µM
[5] = second compound 0.0316 µM, first compound 3.16 µM
[6] = second compound 0.0316 µM, first compound 10 µM
[7] = second compound 0.1 µM, first compound 0.0316 µM
[8] = second compound 0.1 µM, first compound 0.1 µM
[9] = second compound 0.1 µM, first compound 0.316 µM
[10] = second compound 0.1 µM, first compound 1 µM
[11] = second compound 0.1 µM, first compound 3.16 µM
[12] = second compound 0.1 µM, first compound 10 µM
[13] = second compound 0.316 µM, first compound 0.0316 µM
[14] = second compound 0.316 µM, first compound 0.1 µM
[15] = second compound 0.316 µM, first compound 0.316 µM
[16] = second compound 0.316 µM, first compound 1 µM
[17] = second compound 0.316 µM, first compound 3.16 µM
[18] = second compound 0.316 µM, first compound 10 µM
[19] = second compound 1 µM, first compound 0.0316 µM
[20] = second compound 1 µM, first compound 0.1 µM
[21] = second compound 1 µM, first compound 0.316 µM
[22] = second compound 1 µM, first compound 1 µM
[23] = second compound 1 µM, first compound 3.16 µM
[24] = second compound 1 µM, first compound 10 µM
[25] = second compound 3.16 µM, first compound 0.0316 µM
[26] = second compound 3.16 µM, first compound 0.1 µM
[27] = second compound 3.16 µM, first compound 0.316 µM
[28] = second compound 3.16 µM, first compound 1 µM
[29] = second compound 3.16 µM, first compound 3.16 µM
[30] = second compound 3.16 µM, first compound 10 µM
[31] = second compound 10 µM, first compound 0.0316 µM
[32] = second compound 10 µM, first compound 0.1 µM
[33] = second compound 10 µM, first compound 0.316 µM
[34] = second compound 10 µM, first compound 1 µM
[35] = second compound 10 µM, first compound 3.16 µM
[36] = second compound 10 µM, first compound 10 µM
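Further: spheroids exposed to the agents for seven days.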
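Wherever viability, T/C is given: percent of DMSO vehicle control viability which is 100%.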

`Cc1cccc(N(C)C(=O)C2C(O)CCN2c2nc(C)cc(C(F)(F)F)c2C#N)c1` (stereo not drawn) + Cc1[nH]c2ccc(F)cc2c1-c1nc2c3cccnc3c3ncccc3c2[nH]1 showed an IC50 (second compound 0.0316 µM) greater than 10 µM, an IC50 (second compound 0.1 µM) greater than 10 µM and an IC50 (second compound 0.316 µM) greater than 10 µM. It also gave an IC50 (second compound 1 µM) greater than 10 µM, an IC50 (second compound 3.16 µM) greater than 10 µM and an IC50 (second compound 10 µM) greater than 10 µM. It also gave a viability, T/C [1] of 108%, a viability, T/C [2] of 97.1% and a viability, T/C [3] of 103%. For the same compound, the viability, T/C [4] was 94%, the viability, T/C [5] was 99.8% and the viability, T/C [6] was 99.4%. The viability, T/C [7] was 99.2%, the viability, T/C [8] was 99.9% and the viability, T/C [9] was 97.4%. The viability, T/C [10] was 94.3%, the viability, T/C [11] was 91.6% and the viability, T/C [12] was 101%. It also gave a viability, T/C [13] of 91.1%, a viability, T/C [14] of 101% and a viability, T/C [15] of 99.5%. For the same compound, the viability, T/C [16] was 98.9%, the viability, T/C [17] was 98% and the viability, T/C [18] was 99.2%. It also gave a viability, T/C [19] of 86.4%, a viability, T/C [20] of 86.2% and a viability, T/C [21] of 90.1%. For the same compound, the viability, T/C [22] was 90.4%, the viability, T/C [23] was 91.7% and the viability, T/C [24] was 92.9%. The viability, T/C [25] was 73.8%, the viability, T/C [26] was 71.6% and the viability, T/C [27] was 76.7%. The viability, T/C [28] was 74.4%, the viability, T/C [29] was 79.3% and the viability, T/C [30] was 75.5%. The viability, T/C [31] was 69.6%, the viability, T/C [32] was 77.7% and the viability, T/C [33] was 79.1%. For the same compound, the viability, T/C [34] was 72.6%, the viability, T/C [35] was 69.8% and the viability, T/C [36] was 71.2%.

In the case of `Cn1ncnc1[C@H]1c2n[nH]c(=O)c3cc(F)cc(c23)N[C@@H]1c1ccc(F)cc1` + Cc1[nH]c2ccc(F)cc2c1-c1nc2c3cccnc3c3ncccc3c2[nH]1, the IC50 (second compound 0.0316 µM) is reported as greater than 0.316 µM, the IC50 (second compound 0.1 µM) is reported as greater than 0.316 µM and the IC50 (second compound 0.316 µM) is reported as greater than 0.316 µM. It also gave an IC50 (second compound 1 µM) greater than 0.316 µM, an IC50 (second compound 3.16 µM) of 0.257 µM and an IC50 (second compound 10 µM) greater than 0.316 µM. It also gave a viability, T/C (second compound 0.0316 µM, first compound 0.000999 µM) of 96.6%, a viability, T/C (second compound 0.0316 µM, first compound 0.00316 µM) of 83.2% and a viability, T/C (second compound 0.0316 µM, first compound 0.00999 µM) of 83.7%. For the same compound, the viability, T/C [1] was 75.4%, the viability, T/C (second compound 0.0316 µM, first compound 0.0999 µM) was 66.8% and the viability, T/C [3] was 64.4%. The viability, T/C (second compound 0.1 µM, first compound 0.000999 µM) was 93%, the viability, T/C (second compound 0.1 µM, first compound 0.00316 µM) was 93% and the viability, T/C (second compound 0.1 µM, first compound 0.00999 µM) was 91.7%. The viability, T/C [7] was 75.5%, the viability, T/C (second compound 0.1 µM, first compound 0.0999 µM) was 67.1% and the viability, T/C [9] was 57.6%. For the same compound, the viability, T/C (second compound 0.316 µM, first compound 0.000999 µM) was 92.7%, the viability, T/C (second compound 0.316 µM, first compound 0.00316 µM) was 92% and the viability, T/C (second compound 0.316 µM, first compound 0.00999 µM) was 82.6%. The viability, T/C [13] was 82.4%, the viability, T/C (second compound 0.316 µM, first compound 0.0999 µM) was 69.1% and the viability, T/C [15] was 57.2%. The viability, T/C (second compound 1 µM, first compound 0.000999 µM) was 91%, the viability, T/C (second compound 1 µM, first compound 0.00316 µM) was 85.4% and the viability, T/C (second compound 1 µM, first compound 0.00999 µM) was 79.1%. It also gave a viability, T/C [19] of 72.6%, a viability, T/C (second compound 1 µM, first compound 0.0999 µM) of 66.6% and a viability, T/C [21] of 54.2%. For the same compound, the viability, T/C (second compound 3.16 µM, first compound 0.000999 µM) was 74%, the viability, T/C (second compound 3.16 µM, first compound 0.00316 µM) was 66.6% and the viability, T/C (second compound 3.16 µM, first compound 0.00999 µM) was 65.1%. For the same compound, the viability, T/C [25] was 61.2%, the viability, T/C (second compound 3.16 µM, first compound 0.0999 µM) was 52.3% and the viability, T/C [27] was 49.4%. The viability, T/C (second compound 10 µM, first compound 0.000999 µM) was 73.7%, the viability, T/C (second compound 10 µM, first compound 0.00316 µM) was 77.7% and the viability, T/C (second compound 10 µM, first compound 0.00999 µM) was 66.5%. The viability, T/C [31] was 60.2%, the viability, T/C (second compound 10 µM, first compound 0.0999 µM) was 55.9% and the viability, T/C [33] was 51.8%.

`O=C(c1cc(Cc2n[nH]c(=O)c3ccccc23)ccc1F)N1CCN(C(=O)C2CC2)CC1` + Cc1[nH]c2ccc(F)cc2c1-c1nc2c3cccnc3c3ncccc3c2[nH]1 was tested, and the IC50 (second compound 0.0316 µM) was greater than 10 µM, the IC50 (second compound 0.1 µM) was greater than 10 µM and the IC50 (second compound 0.316 µM) was greater than 10 µM. The IC50 (second compound 1 µM) was greater than 10 µM, the IC50 (second compound 3.16 µM) was 8.31 µM and the IC50 (second compound 10 µM) was greater than 10 µM. It also gave a viability, T/C [1] of 90%, a viability, T/C [2] of 88.3% and a viability, T/C [3] of 88%. For the same compound, the viability, T/C [4] was 84.7%, the viability, T/C [5] was 80.5% and the viability, T/C [6] was 64.5%. The viability, T/C [7] was 98%, the viability, T/C [8] was 89.9% and the viability, T/C [9] was 94%. The viability, T/C [10] was 79.5%, the viability, T/C [11] was 80% and the viability, T/C [12] was 56.9%. The viability, T/C [13] was 92.1%, the viability, T/C [14] was 93% and the viability, T/C [15] was 88.8%. The viability, T/C [16] was 83.1%, the viability, T/C [17] was 76% and the viability, T/C [18] was 55.4%. It also gave a viability, T/C [19] of 90.6%, a viability, T/C [20] of 89.7% and a viability, T/C [21] of 88.4%. The viability, T/C [22] was 77.1%, the viability, T/C [23] was 74.1% and the viability, T/C [24] was 56.7%. It also gave a viability, T/C [25] of 69.8%, a viability, T/C [26] of 67.4% and a viability, T/C [27] of 68.4%. The viability, T/C [28] was 63.5%, the viability, T/C [29] was 59.5% and the viability, T/C [30] was 48.2%. For the same compound, the viability, T/C [31] was 68.9%, the viability, T/C [32] was 66.5% and the viability, T/C [33] was 70.2%. For the same compound, the viability, T/C [34] was 62.1%, the viability, T/C [35] was 61.1% and the viability, T/C [36] was 49.4%.

Work on `O=c1[nH]cc(F)c(=O)[nH]1` + Cc1[nH]c2ccc(F)cc2c1-c1nc2c3cccnc3c3ncccc3c2[nH]1 yielded an IC50 (second compound 0.0316 µM) greater than 10 µM, an IC50 (second compound 0.1 µM) greater than 10 µM and an IC50 (second compound 0.316 µM) greater than 10 µM. For the same compound, the IC50 (second compound 1 µM) was greater than 10 µM, the IC50 (second compound 3.16 µM) was greater than 10 µM and the IC50 (second compound 10 µM) was greater than 10 µM. It also gave a viability, T/C [1] of 97.7%, a viability, T/C [2] of 107% and a viability, T/C [3] of 107%. For the same compound, the viability, T/C [4] was 95.4%, the viability, T/C [5] was 86% and the viability, T/C [6] was 71.8%. It also gave a viability, T/C [7] of 108%, a viability, T/C [8] of 89.7% and a viability, T/C [9] of 96.4%. The viability, T/C [10] was 98.8%, the viability, T/C [11] was 91.4% and the viability, T/C [12] was 70.6%. The viability, T/C [13] was 95.2%, the viability, T/C [14] was 95.6% and the viability, T/C [15] was 94%. It also gave a viability, T/C [16] of 90.6%, a viability, T/C [17] of 93.4% and a viability, T/C [18] of 71.4%. It also gave a viability, T/C [19] of 91.3%, a viability, T/C [20] of 101% and a viability, T/C [21] of 90.6%. For the same compound, the viability, T/C [22] was 88.4%, the viability, T/C [23] was 84.5% and the viability, T/C [24] was 73.3%. It also gave a viability, T/C [25] of 77.1%, a viability, T/C [26] of 71.7% and a viability, T/C [27] of 75.5%. It also gave a viability, T/C [28] of 73.2%, a viability, T/C [29] of 71.2% and a viability, T/C [30] of 56.9%. It also gave a viability, T/C [31] of 70.5%, a viability, T/C [32] of 73% and a viability, T/C [33] of 71.9%. The viability, T/C [34] was 73%, the viability, T/C [35] was 71.8% and the viability, T/C [36] was 55.9%.
